Assay results: the METLIN SMRT retention time set (Domingo-Almenara et al. 2019)

Test: gradient 5% acetonitrile 3 min, to 50% in 2 min, to 85% in 15 min, held 3 min, 100 µL/min
Settings: column: Zorbax Extend-C18 2.1 x 50 mm; eluents: water / acetonitrile, 0.1% formic acid
Outline: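 Over 3 months, pure standards in mixtures of ~100 molecules were run by HPLC coupled to a quadrupole time-of-flight mass spectrometer in positive and negative ionization mode. The column was a Zorbax Extend-C18 (2.1 × 50 mm, 1.8 μm) at 100 μL/min, eluted with water and acetonitrile each holding 0.1% formic acid, with 40 μL dead and 900 μL dwell volumes. Retention time was determined from adduct peaks chosen by software and checked manually.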

| RP-LC retention time | SMILES |
| --- | --- |
| 1220 s | Cc1ccc(-c2noc(Cc3nc(-c4ccc5c(c4)OCO5)cs3)n2)cc1 |
| 634 s | Cc1ccc(C)c(NC(=O)N2CCC(n3cnnc3C3CC3)C2)c1 (configuration not stated) |
| 929 s | CCS(=O)(=O)c1ncc(Cl)c(C(=O)Nc2ccc(Oc3ccccc3)cc2)n1 |
| 1170 s | CCCN1C(=O)COc2ccc(-c3noc(COc4cccc(C)c4)n3)cc21 |
| 638 s | Cc1ccc(CN2CCC(CNC(=O)c3ccc4c(c3)NC(=O)C3CCCCN43)CC2)cc1 (configuration not stated) |
| 1150 s | CCOc1ccc(-c2nc(Cn3nnc(C(=O)Nc4ccccc4OC)c3C)c(C)o2)cc1 |
| 848 s | Cc1ncnc2c1CCC(=O)N2CC1CCCCC1 |
| 771 s | O=C(CN1C(=O)C2CCCCN2c2ccc(S(=O)(=O)N3CCCC3)cc21)NCC1CCCO1 (configuration not stated) |
| 797 s | COc1ncc(C(=O)NC(C)CCc2ccccc2)cn1 (configuration not stated) |
| 1080 s | CC(C)(C)c1ccc(S(=O)(=O)N2CCCC(CNC(=O)c3ccccc3)C2)cc1 (configuration not stated) |
| 993 s | CCOC(=O)C1CCN(S(=O)(=O)c2ccc3onc(C(=O)N4CCCC4)c3c2)CC1 |
| 815 s | O=C(c1nc(-c2ccccc2)nc2c1OCO2)N1CCCC1 |
| 735 s | CCc1ccccc1N1C(=O)c2c(C(=O)OC)ncn2CC1(C)C(=O)NCc1ccccc1 (configuration not stated) |
| 1090 s | O=C(Cn1cnc2c(sc3nc(-c4ccccc4)ccc32)c1=O)NCCC1=CCCCC1 |
| 705 s | COc1ccc(C(=O)N2CC(n3cc(COCC4CC4)nn3)C2)c(OC)c1 |
| 692 s | CCn1cc(-c2ccccc2)cc1C(=O)NC(C)c1cccnc1 (configuration not stated) |
| 872 s | Cc1ccsc1-c1nnc(CC(=O)N2CCN(c3ccccc3)CC2)o1 |
| 588 s | Cc1noc(C)c1S(=O)(=O)N1CCC2(CC1)NCCc1c2[nH]c2ccccc12 |
| 944 s | CCc1ccc(C2=C(C)C(N3CCC(C(=O)NCc4ccc(C)o4)CC3)=NS2(=O)=O)cc1 |
| 991 s | C=CCn1c(C)c(CC(=O)Nc2ccc(C)cc2)c(=O)n2nc(-c3ccc(C)cc3)nc12 |
| 1010 s | CCc1nn2c(nnc3c(=O)n(CCc4c[nH]c5ccccc45)ccc32)c1-c1ccccc1 |
| 852 s | CCCC(=O)Nc1cc2c(cc1SC(C)C)n(C)c(=O)n2C |

| RP-LC retention time | SMILES |
| --- | --- |
| 743 s | COc1ccc(N2CC(c3nc(-c4ccc(OC)c(OC)c4)no3)CC2=O)c(OC)c1 (configuration not stated) |
| 719 s | COc1ccccc1CNC(=O)C1CCc2nc(N3CCOCC3)ncc2C1 (configuration not stated) |
| 732 s | CC1(C)S[C@@H]2[C@H](NC(=O)Cc3ccccc3)C(=O)N2C1C(=O)O (some centres not stated) |
| 677 s | CCOc1cc(CNc2ccc3[nH]c(=O)[nH]c3c2)cc(Br)c1OC |
| 594 s | COc1ccc(-c2c(C(=O)NCCCN3CCOCC3)nc3ccccn23)cc1 |
| 659 s | CCNc1cc(N2CCC(CCC(=O)NCc3cccc(C)c3)CC2)ncn1 |
| 838 s | CC(=O)N1CCc2ccccc2C1C(=O)NCc1ccc(C(F)(F)F)cc1 (configuration not stated) |
| 906 s | COc1ccccc1CNC(=O)c1nnc(-c2ccc(S(=O)(=O)N3CCCC3)cc2)o1 |
| 556 s | CCOC(=O)CNC(=O)CN(C(=O)N1CCN(C)CC1)S(=O)(=O)c1ccc(C)cc1 |
| 874 s | CCCCOc1nc2c(c(=O)n(C)c(=O)n2C)n1C |
| 1100 s | Cc1cc(-c2c(C)sc(C)c2S(=O)(=O)Nc2cccc(Br)c2)n[nH]1 |
| 784 s | CCOc1ccc(N(C)C(=O)C2CCN(S(=O)(=O)c3ccc4c(c3)NC(=O)CO4)CC2)cc1 |
| 947 s | CCn1cc(-c2nc(C)c(C(=O)NCc3cccc(F)c3)s2)c2cccnc21 |
| 817 s | Cn1cccc1C(=O)N1CCC2(CC1)NC(=O)N(Cc1ccc(Cl)cc1)C2=O |
| 1150 s | Cc1ccccc1-c1noc(Cn2c(=O)n(Cc3ccc(F)cc3)c(=O)c3sccc32)n1 |
| 953 s | O=C(Cc1csc(SCc2cccc(Cl)c2)n1)Nc1ccc2c(c1)OCCO2 |
| 902 s | O=C(O)C1CCN(c2nc3ccc(-c4ccc(F)cc4)nc3s2)CC1 |
| 557 s | CN1CCN(CCCNC(=O)c2nccnc2NC(=O)c2ccccc2)CC1 |
| 783 s | COCCn1cc(CCNC(=O)Nc2ccc(F)c(Cl)c2)c2cccnc21 |
| 939 s | O=S(=O)(CCc1noc(-c2cc(F)cc(F)c2)n1)c1ccccc1 |
| 839 s | Cc1cc(Cl)ccc1NC(=O)C1CCN(S(=O)(=O)c2ccc3c(c2)NC(=O)CO3)CC1 |
| 634 s | Cc1nn2c(CNC(=O)c3ccc(F)c(F)c3)c(C)nc2s1 |

| RP-LC retention time | SMILES |
| --- | --- |
| 992 s | O=C(Nc1ccc(Cl)cc1F)c1cnc(-c2ccc(F)cc2)nc1-c1ccncc1 |
| 643 s | C=CCn1c(=O)c2ccc(C(=O)NCC(C)C)cc2n2c(=O)n(CC(N)=O)nc12 |
| 573 s | CC(NC(=O)NC1CCCCC1)C(c1cccs1)N1CCN(C)CC1 (configuration not stated) |
| 877 s | CCCn1cc(CCNS(=O)(=O)c2ccc(F)cc2Cl)c2cccnc21 |
| 872 s | CCOC(=O)c1nnc2c(-c3ccc(Cl)cc3)c(C)nn2c1N |
| 751 s | Cc1cc(S(=O)(=O)N2CCC(n3cnnc3C(C)C)CC2)ccc1F |
| 834 s | CCN1C(=O)c2cc(C(=O)Nc3cccc(F)c3)nn2CC1(C)C(=O)NC1CCCC1 (configuration not stated) |
| 1110 s | Fc1ccc(-c2nnc(Cc3nc(-c4ccc(Br)cc4)no3)o2)cc1 |
| 877 s | COc1ccccc1-c1noc(C2CCCN2C(=O)Nc2ccc(C)cc2)n1 (configuration not stated) |
| 702 s | CN1CCN(c2ccc(Nc3cc(-c4cccc(-n5ccc6cc(C7CC7)cc(F)c6c5=O)c4CO)cn(C)c3=O)nc2)CC1 |
| 946 s | Cc1ccc2ncn(C3CCN(S(=O)(=O)c4ccc(F)c(F)c4)CC3)c(=O)c2c1 |
| 945 s | COc1ccc(NS(=O)(=O)c2ccc(-c3c(C)noc3C)cc2)cc1Cl |
| 797 s | COc1cncc(C(=O)Nc2cc(F)cc(F)c2)c1 |
| 810 s | Cc1nc(-c2noc(-c3ccccc3)n2)cn1CC(=O)NCc1ccccc1F |
| 1070 s | COc1ccc(N2CC(c3noc(-c4ccc(OC(F)(F)F)cc4)n3)CC2=O)cc1 (configuration not stated) |
| 1090 s | Cc1ccc(-c2ccc3nn(Cc4nc(-c5cccc(C(F)(F)F)c5)no4)c(=O)n3n2)cc1 |
| 560 s | Cc1nn(C)c2c(N3CCC(C(=O)N4CCN(CC(=O)N5CCOCC5)CC4)CC3)nccc12 |
| 553 s | O=C(Nc1ccccc1F)N1CCN(c2cc(-c3ccncc3)[nH]n2)CC1 |
| 822 s | Cc1ccc(NC(=O)C2CCc3nc(N4CCCCC4)ncc3C2)cc1 (configuration not stated) |
| 616 s | O=C(Cn1ccc2ccc(N3CCOCC3)nc21)N1CCN(c2ccccn2)CC1 |
| 1100 s | COc1ccc(-c2noc(-c3nc(Cc4cccc(F)c4)no3)n2)cc1OC |
| 1210 s | Cc1nc2cc(-c3noc(-c4ccc(C(F)(F)F)cc4)n3)ccc2o1 |

| RP-LC retention time | SMILES |
| --- | --- |
| 626 s | CN(C)C(=O)c1csc(S(=O)(=O)N2CCC(C(=O)NC3CC3)CC2)c1 |
| 766 s | O=C(CCc1nc(CSc2nnc(-c3ccccc3)o2)no1)Nc1nccs1 |
| 786 s | O=C(N[C@H]1C[C@@H]2C[C@H]1CN2C(=O)c1ccc(OC(F)(F)F)cc1)c1ccccc1 |
| 763 s | Cc1cccc(NC(=O)C2CCCN2S(=O)(=O)c2cc3c(cc2C)NC(=O)CO3)c1 (configuration not stated) |
| 674 s | CN(C)C(=O)c1nc2ccccn2c1-c1ccc(Cl)cc1 |
| 864 s | CC(C)COc1cc(=O)n2c(c1C(=O)NCC1CCCCC1)CCCCC2 |
| 1310 s | COc1ccc(N2CCN(c3cc(SCC(=O)NC(C)CCc4ccccc4)ncn3)CC2)cc1 (configuration not stated) |
| 662 s | CCCn1c(=O)sc2cc(S(=O)(=O)N3CCC(C(=O)NCc4ccccn4)CC3)ccc21 |
| 1040 s | CCc1nc(-c2ccc(-c3noc(CNC(=O)c4ccc(C)cc4)n3)cc2)cs1 |
| 824 s | Cc1cc2c(c(=O)n(-c3ccc(F)cc3)c(=O)n2CC(=O)Nc2cccc(C#N)c2)n1C |
| 990 s | Cc1ccc(CN2CC(F)(F)C[C@H]2c2nnc(-c3cnccn3)o2)c(C)c1 |
| 840 s | COc1cc2c3c(n(C)c(=O)c2cc1OC)-c1cc2c(cc1C3=O)OCO2 |
| 784 s | CCN1CCCn2cc(S(=O)(=O)N3CCN(c4ccccc4OC)CC3)cc2C1=O |
| 655 s | CCN(CC)c1ccc(-c2noc(CN3CCN(c4ncccn4)CC3)n2)cn1 |
| 783 s | O=C(Cc1cccs1)N1CCC2(CC1)OCCN2S(=O)(=O)c1ccccc1 |
| 861 s | CCC(=O)Nc1ccc(C2(C(=O)N3CCN(c4ccccc4)CC3)CCC2)cc1 |
| 632 s | O=C(NCC1CCN(c2ncccn2)CC1)Nc1ccc2c(c1)OCO2 |
| 631 s | O=C(Nc1ccc(Cl)cc1)Nc1c(-c2ccncc2)nc2ccccn12 |
| 996 s | Cc1nn(-c2ccc(-c3ccccc3)nn2)c(C)c1S(=O)(=O)N1CCCC1 |
| 754 s | COc1ccc(C(=O)Nc2nc(CC(=O)Nc3ccc4c(c3)OCCO4)cs2)cc1 |
| 617 s | CCC(C)NC(=O)c1cnn(-c2cc(-c3nc(C(C)C)no3)ccn2)c1C (configuration not stated) |
